One may read the IC50 as the concentration that gives 50% inhibition.

Where only a bound is given, the exact number is not on record here.

T1 sequence (P50579 whole entry): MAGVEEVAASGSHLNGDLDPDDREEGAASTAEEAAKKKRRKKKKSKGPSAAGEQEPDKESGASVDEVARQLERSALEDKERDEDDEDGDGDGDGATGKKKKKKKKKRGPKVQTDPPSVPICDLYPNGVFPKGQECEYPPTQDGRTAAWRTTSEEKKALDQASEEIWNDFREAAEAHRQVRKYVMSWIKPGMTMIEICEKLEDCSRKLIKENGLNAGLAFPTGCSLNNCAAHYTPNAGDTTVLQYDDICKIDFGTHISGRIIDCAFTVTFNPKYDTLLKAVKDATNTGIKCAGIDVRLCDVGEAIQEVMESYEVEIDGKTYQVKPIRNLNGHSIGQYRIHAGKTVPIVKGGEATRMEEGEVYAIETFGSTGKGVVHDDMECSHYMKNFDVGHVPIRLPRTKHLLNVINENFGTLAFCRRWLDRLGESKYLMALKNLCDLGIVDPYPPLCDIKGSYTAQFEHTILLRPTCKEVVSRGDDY

The test has as its target T1, recombinant human MetAP2 (Homo sapiens, UniProt P50579).
T1 construct: made in house; host or cells: Sf9 insect cells
Put plainly: Inhibition of recombinant human MetAP2 activity (fluorescence, MAS substrate, amino acid oxidase/Amplex red). In kind it is biochemical. The settings on record: manganese enzyme; 0.75 mM Methionine-Alanine-Serine (MAS) substrate; 30 minutes at 25° C.; pH 7.5; 1% DMSO. The procedure: Compounds are tested for their capacity to inhibit recombinant human MetAP2 activity using the following assay.
Human recombinant MetAP2 expressed in Sf9 cells followed by affinity purification and EDTA treatment to remove endogenous active site cation was dialysed against MnCl2 to produce the manganese enzyme used in the assay. The assay was carried out for 30 minutes at 25° C. in 50 mM HEPES buffer containing 100 mM NaCl, pH 7.5 the presence of 0.75 mM Methionine-Alanine-Serine (MAS) substrate and 50 μg/ml amino acid oxidase using a dilution of purified MetAP2 giving >3-fold signal: noise. Cleavage of the substrate by MetAP2 and oxidation of free methionine by amino acid oxidase was detected and quantified using fluorescence generated by Amplex red (10-acetyl-3,7-dihydroxyphenoxazine) in combination with horseradish peroxidase which detects H2O2 released during the oxidation step. The fluorescent signal was detected using a multiwell fluorimeter. Compounds were diluted in DMSO prior to addition to assay buffer, the final DMSO concentration in the assay being 1%.
IC50 values are calculated using the XLfit software package (version 2.0.5).
In the case of `CCN1CCC[C@@H]1C(=O)NCc1cc(F)ccc1S(=O)(=O)Nc1ccc2c(c1C(=O)O)OC[C@@H]1C[C@H]21` (mixture of isomers) [(1aRS,7bSR)-5-(2-{[((R)-1-Ethylpyrrolidine-2-yl)carbonyl-amino]methyl}-4-fluorobenzenesulfonylamino)-1,1a,2,7b-tetrahydrocyclopropa[c]chromene-4-carboxylic acid], the 50% inhibitory concentration (IC50) is 50 to 500 nM. For the compound `CCN1CC[C@@H](C(=O)NCc2cc(F)ccc2S(=O)(=O)Nc2ccc3c(c2C(=O)O)OC[C@@H]2C[C@H]32)C1` (mixture of isomers) [(1aRS,7bSR)-5-(2-{[((R)-1-Ethylpyrrolidine-3-carbonyl)amino]-methyl}-4-fluoro-benzenesulfonylamino)-1,1a,2,7b-tetrahydro-cyclopropa[c]chromene-4-carboxylic acid], the half-inhibitory concentration (IC50) lay in the range of 50 to 500 nM.

For the compound `CCN1CC[C@@H](Cc2cc(F)ccc2S(=O)(=O)Nc2ccc3c(c2C(=O)O)OC[C@@H]2C[C@H]32)C1` (mixture of isomers) [(1aRS,7bSR)-5-[2-((R)-1-Ethylpyrrolidin-3-ylmethyl)-4-fluorobenzenesulfonyl-amino]-1,1a,2,7b-tetrahydro-cyclopropa[c]chromene-4-carboxylic acid], the half-inhibitory concentration (IC50) is below 50 nM. For `CCN1CC[C@H](Cc2cc(F)ccc2S(=O)(=O)Nc2ccc3c(c2C(=O)O)OC[C@@H]2C[C@H]32)C1` (mixture of isomers) [(1aRS,7bSR)-5-[2-((S)-1-Ethyl-pyrrolidin-3-ylmethyl)-4-fluorobenzenesulfonyl-amino]-1,1a,2,7b-tetrahydrocyclopropa[c]chromene-4-carboxylic acid] the value was 50 to 500 nM; for `CCN1CCC[C@@H]1CCNc1ccccc1S(=O)(=O)Nc1ccc2c(c1C(=O)O)OC[C@@H]1C[C@H]21` (mixture of isomers) [(1aRS,7bSR)-5-{2-[2-((R)-1-Ethylpyrrolidin-2-yl)ethylamino]-benzenesulfonyl-amino}-1,1a,2,7b-tetrahydrocyclopropa-[c]chromene-4-carboxylic acid], below 50 nM. The value for `CCN1CC[C@@H](CCNc2ccccc2S(=O)(=O)Nc2ccc3c(c2C(=O)O)OC[C@@H]2C[C@H]32)C1` (mixture of isomers) [(1aRS,7bSR)-5-{2-[2-((R)-1-Ethylpyrrolidin-3-yl)ethylamino]-benzenesulfonylamino}-1,1a,2,7b-tetrahydrocyclopropa-[c]chromene-4-carboxylic acid] was 50 to 500 nM; that for `CCN1CC[C@@H](NCCc2cc(F)ccc2S(=O)(=O)Nc2ccc3c(c2C(=O)O)OC[C@@H]2C[C@H]32)C1` (mixture of isomers) [(1aRS,7bSR)-5-{2-[2-((R)-1-Ethylpyrrolidin-3-ylamino)ethyl]-4-fluoro-benzenesulfonylamino}-1,1a,2,7b-tetrahydrocyclopropa-[c]chromene-4-carboxylic acid] was 50 to 500 nM. Turning to `CCN1CCC[C@H]1CCNc1ccccc1S(=O)(=O)Nc1ccc2c(c1C(=O)O)OC[C@@H]1C[C@H]21` (mixture of isomers) [(1aRS,7bSR)-5-{2-[2-((S)-1-Ethylpyrrolidin-2-yl)ethylamino]-benzenesulfonyl-amino}-1,1a,2,7b-tetrahydrocyclopropa-[c]chromene-4-carboxylic acid], the IC50 is below 50 nM.

`CCN1CC[C@H](CCNc2ccccc2S(=O)(=O)Nc2ccc3c(c2C(=O)O)OC[C@@H]2C[C@H]32)C1` (mixture of isomers) [(1aRS,7bSR)-5-{2-[2-((S)-1-Ethylpyrrolidin-3-yl)ethylamino]-benzenesulfonyl-amino}-1,1a,2,7b-tetrahydrocyclopropa-[c]chromene-4-carboxylic acid]: the IC50 is 50 to 500 nM. With `CCN1CC[C@@H](Nc2ccccc2S(=O)(=O)Nc2ccc3c(c2C(=O)O)OC[C@@H]2C[C@H]32)C1` (mixture of isomers) [(1aRS,7bSR)-5-{2-[((R)-1-Ethylpyrrolidin-3-yl)amino]-benzenesulfonylamino}-1,1a,2,7b-tetrahydrocyclopropa-[c]chromene-4-carboxylic acid], the IC50 was in the range of 50 to 500 nM. Take `CCN1CC[C@H](CNc2ccccc2S(=O)(=O)Nc2ccc3c(c2C(=O)O)OC[C@@H]2C[C@H]32)C1` (mixture of isomers) [(1aRS,7bSR)-5-{2-[((R)-1-Ethylpyrrolidin-3-ylmethyl)amino]-benzenesulfonylamino}-1,1a,2,7b-tetrahydrocyclopropa-[c]chromene-4-carboxylic acid]: the IC50 lay in the range of 50 to 500 nM. For `CCN1CCCC1C(=O)NCc1cc(F)ccc1S(=O)(=O)Nc1ccc2c(c1C(=O)O)OCC1CC21` (mixture of isomers) [(1aRS,7bSR)-5-{2-[((S)-1-Ethylpyrrolidin-2-yl)cabonyl-aminomethyl]-4-fluorobenzenesulfonylamino}-1,1a,2,7b-tetrahydrocyclopropa[c]chromene-4-carboxylic acid] the value was below 50 nM; for `CCN1CC[C@H](Nc2ccccc2S(=O)(=O)Nc2ccc3c(c2C(=O)O)OC[C@@H]2C[C@H]32)C1` (mixture of isomers) [(1aRS,7bSR)-5-{2-[((S)-1-Ethylpyrrolidin-3-yl)amino]-benzenesulfonylamino}-1,1a,2,7b-tetrahydrocyclopropa-[c]chromene-4-carboxylic acid], 50 to 500 nM; for `CCN1CC[C@H](NC(=O)Cc2cc(F)ccc2S(=O)(=O)Nc2ccc3c(c2C(=O)O)OC[C@@H]2C[C@H]32)C1` (mixture of isomers) [(1aRS,7bSR)-5-{2-[((S)-1-Ethylpyrrolidin-3-ylcarbamoyl)-methyl]-4-fluoro-benzenesulfonyl-amino}-1,1a,2,7b-tetrahydrocyclopropa-[c]chromene-4-carboxylic acid], 50 to 500 nM.

Regarding `CCN1CC[C@@H](CNc2ccccc2S(=O)(=O)Nc2ccc3c(c2C(=O)O)OC[C@@H]2C[C@H]32)C1` (mixture of isomers) [(1aRS,7bSR)-5-{2-[((S)-1-Ethylpyrrolidin-3-ylmethyl)amino]-benzenesulfonylamino}-1,1a,2,7b-tetrahydrocyclopropa-[c]chromene-4-carboxylic acid], the concentration for half-maximal inhibition (IC50) lay in the range of 50 to 500 nM. The value for `CCN1CCC[C@@H]1C(=O)N(C)Cc1cc(F)ccc1S(=O)(=O)Nc1ccc2c(c1C(=O)O)OCC1CC21` (mixture of isomers) [(1aRS,7bSR)-5-(2-{N-[((R)-1-Ethylpyrrolidine-2-yl)carbonyl]-N-methylaminomethyl}-4-fluorobenzenesulfonylamino)-1,1a,2,7b-tetrahydrocyclopropa[c]chromene-4-carboxylic acid] was 50 to 500 nM; that for `CCN1CC[C@H](C(=O)NCc2cc(F)ccc2S(=O)(=O)Nc2ccc3c(c2C(=O)O)OCC2CC32)C1` (mixture of isomers) [(1aRS,7bSR)-5-(2-{[((S)-1-ethylpyrrolidine-3-carbonyl)amino]methyl}-4-fluoro-benzenesulfonylamino)-1,1a,2,7b-tetrahydrocyclopropa[c]chromene-4-carboxylic acid] was 50 to 500 nM; that for `CCNC/C=C\c1cc(F)ccc1S(=O)(=O)Nc1ccc2c(c1C(=O)O)OC[C@@H]1C[C@H]21` (racemic) [(1aRS,7bSR)-5-[2((Z)-3-Ethylaminoprop-1-enyl)-4-fluoro-benzenesulfonylamino]-1,1a,2,7b-tetrahydrocyclopropa-[c]chromene-4-carboxylic acid] was below 50 nM.
